Test systems include SNB-75 CNS; DU-145 prostate; HOP-92 NSCLC; OVCAR-4 ovarian; SF-268 CNS; A549 NSCLC; IGROV1 ovarian; T-47D breast; TK-10 renal; HS 578T breast.
What all share (test): NCI anticancer screen, dose series, 48 h

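Protocol summary: plate cells (96-well), add compound at 5 concentrations, incubate 48 h, interpolate endpoints linearly. GI50 = concentration required for 50% inhibition of growth. TGI denotes the concentration required for complete inhibition of growth.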

Turning to `NCCCNc1nc2ccccc2c2c(=O)c3cc(C(F)(F)F)ccc3sc12`, the GI50 with SNB-75 CNS is 1.53 µM; with DU-145 prostate it was 1.82 µM; with HOP-92 NSCLC, 1.37 µM. The TGI stood at 2.96 µM in the assay with SNB-75 CNS, 3.26 µM in the assay with DU-145 prostate and 2.85 µM in the assay on HOP-92 NSCLC.

Turning to `CCC1=CC2CN3CCc4c([nH]c5ccccc45)C(C(=O)OC)(C2)C13` (configuration not stated), the TGI with SNB-75 CNS stood at 89.9 µM; in the assay with OVCAR-4 ovarian it was 75.3 µM; with SF-268 CNS it was 101 µM; with HOP-92 NSCLC, 33.9 µM; in the assay with A549 NSCLC, 82.5 µM; in the assay on IGROV1 ovarian, 105 µM.

Consider `Cc1cc(C)nc(NS(=O)(=O)c2ccc(Nc3c4ccccc4nc4c(C(=O)NCCCN(CCO)CCO)cccc34)cc2)n1`, for which the TGI in the assay with SNB-75 CNS was 23.1 µM; with OVCAR-4 ovarian it was above 100 µM; in the assay with T-47D breast, above 100 µM; in the assay with DU-145 prostate, above 100 µM; in the assay with SF-268 CNS, above 100 µM; in the assay on HOP-92 NSCLC, above 100 µM. Moreover, the TGI in the assay with TK-10 renal was above 100 µM; in the assay on A549 NSCLC, above 100 µM; with HS 578T breast, 65.5 µM; in the assay on IGROV1 ovarian, above 100 µM.

With `COc1cc(C2C(Cl)C(=O)N2NC(=O)c2ccccc2O)ccc1O` (configuration not stated), the TGI in the assay on SF-268 CNS, in the assay with TK-10 renal, with A549 NSCLC and with IGROV1 ovarian was above 100 µM in each case.

As for `O=C1CN2Cc3cc(N4CCOCC4)ccc3N=C2N1`, the TGI in the assay with SNB-75 CNS, with OVCAR-4 ovarian, with T-47D breast, in the assay with DU-145 prostate, in the assay on HOP-92 NSCLC and with TK-10 renal was above 100 µM in each case. Moreover, the TGI with HS 578T breast and in the assay with IGROV1 ovarian was above 100 µM throughout.

For the compound `CC1(C23CC4CC(CC(C4)C2)C3)n2c(=O)n(-c3ccccc3)c(=O)n2C1(C)C12CC3CC(CC(C3)C1)C2` (configuration not stated), the TGI with SNB-75 CNS, with T-47D breast, in the assay with DU-145 prostate, in the assay on SF-268 CNS, in the assay on HOP-92 NSCLC and with TK-10 renal was above 100 µM throughout. The TGI in the assay on A549 NSCLC, in the assay with HS 578T breast and in the assay on IGROV1 ovarian was above 100 µM each time.

`CON(C)C(C#N)=C(C#N)C#N`: the TGI with SNB-75 CNS, in the assay on OVCAR-4 ovarian, with T-47D breast, in the assay on DU-145 prostate, in the assay with SF-268 CNS and in the assay with TK-10 renal was above 10 µM in each case. The TGI with A549 NSCLC, with HS 578T breast and in the assay with IGROV1 ovarian was above 10 µM throughout.

As for `COc1nc(SC)nc2c1cnn2C1OC(C(O)CO)C(OC)C1O` (configuration not stated), the TGI with SNB-75 CNS, in the assay with OVCAR-4 ovarian, with SF-268 CNS, with A549 NSCLC and with IGROV1 ovarian was above 100 µM each time.

With `COCC1CCCN1c1ccc(/C=C(/C#N)C(N)=S)cc1` (configuration not stated), the GI50 is 90.7 µM in the assay with SNB-75 CNS; above 100 µM in the assay with OVCAR-4 ovarian; 30.6 µM in the assay with T-47D breast; above 100 µM in the assay on DU-145 prostate; above 100 µM in the assay on SF-268 CNS; 8.32 µM with HOP-92 NSCLC. The GI50 in the assay with TK-10 renal, in the assay on A549 NSCLC and in the assay with HS 578T breast was above 100 µM each time. Also, the TGI in the assay on SNB-75 CNS is above 100 µM; with OVCAR-4 ovarian, above 100 µM; with T-47D breast, above 100 µM; with DU-145 prostate it was above 100 µM; in the assay with SF-268 CNS it was above 100 µM; with HOP-92 NSCLC, 89.2 µM. Also, the TGI with TK-10 renal, in the assay with A549 NSCLC and in the assay with HS 578T breast was above 100 µM in each case.

Consider `CCOC(=O)c1c(C)c2c(n1C)CCc1cn[nH]c1-2`, for which the TGI in the assay with SNB-75 CNS, in the assay with OVCAR-4 ovarian, with SF-268 CNS, in the assay on HOP-92 NSCLC, in the assay on A549 NSCLC and in the assay on IGROV1 ovarian was above 100 µM each time.

For the compound `CCCCC(C)C1CCC2(C)C=CC(=O)C(C)=C2C1O` (configuration not stated), the TGI in the assay with SNB-75 CNS, in the assay with OVCAR-4 ovarian, with SF-268 CNS, in the assay with HOP-92 NSCLC, in the assay with A549 NSCLC and in the assay on IGROV1 ovarian was above 100 µM throughout.

Consider `Cc1[nH]c(=O)nc(N/N=C/c2ccc(Cl)cc2)c1C(=O)NC(C)(CO)CO`, for which the TGI in the assay on SNB-75 CNS, in the assay with OVCAR-4 ovarian, in the assay on T-47D breast, in the assay with DU-145 prostate, in the assay on SF-268 CNS and in the assay with HOP-92 NSCLC was above 100 µM each time. The TGI in the assay on TK-10 renal, in the assay on HS 578T breast and with IGROV1 ovarian was above 100 µM in each case.

`CCOC(=O)c1csc(NC(=O)CCN2CCCCC2)n1`: the TGI in the assay on OVCAR-4 ovarian, with T-47D breast, in the assay with DU-145 prostate, with HOP-92 NSCLC, in the assay with TK-10 renal and in the assay with A549 NSCLC was above 100 µM in each case. This compound also showed a TGI in the assay on IGROV1 ovarian above 100 µM.

In the case of `CN1C2CC(=O)CC1[C@H](O)[C@@H]2O`, the TGI with T-47D breast, in the assay on DU-145 prostate, with SF-268 CNS and with TK-10 renal was above 100 µM throughout.

These data come from PubChem BioAssay (NCI).
